# Measured values published in patent US20230406849A1, “KRAS INHIBITORS FOR TREATMENT OF CANCERS” (TYLIGAND BIOSCIENCE (SHANGHAI) LIMITED, priority 2020, published 2023).
# Tests used:
# [1] = tested on: human pancreatic cancer Mia PaCa-2 cells xenograft; experiment: Subcutaneous xenograft tumor model of Mia PaCa-2 cells in BALB/c nude mouse; type: in vivo; details: Mia PaCa-2 xenograft, BALB/c nude mice, gavage once a day; for TGI(%): Day 21
# Procedure: The in vivo efficacy of the representative compounds of the present disclosure in the subcutaneous xenograft tumor model of human pancreatic cancer Mia PaCa-2 cells was evaluated.
# [Test materials]: BALB/c nude mice of 6-8 weeks, female, Zhejiang Vital River Laboratory Animal Technology Co., Ltd. Human pancreatic cancer Mia PaCa-2 cells (ATCC, Cat #: CRL-1420). Matrigel (Matrigel, Corning, Cat. No. 356234).
# [Experimental procedure]: 0.2 mL (5×10^6) Mia PaCa-2 cells (plus Matrigel, volume ratio 1:1) were inoculated subcutaneously on the right back dorsal of each mouse. […] During the assay, tumor volumes and body weights were measured twice a week.
# The tumor volume was calculated according to the following formula: V=0.5a×b^2, where a and b represent the long and short diameters of the tumor, respectively.
# [2] = Pharmacokinetics in rats, IV and oral; type: in vivo, SD rats; details: rat
# Procedure: 2.2 Pharmacokinetic Properties of Representative Examples of the Present Disclosure
# [Test materials] Same as above 2.1.
# [Experimental procedure]: IV injection administration was performed on rats according to the similar procedure described in 2.1 above, with a drug concentration of 3 mg/mL, and the drug preparation, administration and sample collection were performed by reference to 2.1 above. For the oral administration group, the drug was formulated to a 3 mg/mL suspension in 0.5% methylcellulose MC-400cp (Aladdin, M112866), and gavage administered in 10 mL/kg. Blood samples were collected at the time points of 0.25, 0.5, 1, 2, 4, 6, 8 and 24 hours after administration via external jugular vein puncture, centrifuged at low temperature for 20 minutes, and the plasma samples were collected and stored at −80° C. until analysis.
# The subsequent sample analysis and data processing are similar to those described in 2.1.
Compound,Tumor volume (mm^3) (Day 21) ([1]; 10 mpk),TGI(%) ([1]; 10 mpk),"AUC(0-inf) ([2]; male, SD, plasma, IV, 3 mg/kg) [ng·h/mL]","AUC(0-t) ([2]; male, SD, plasma, IV, 3 mg/kg) [ng·h/mL]","Vd ([2]; male, SD, plasma, IV, 3 mg/kg) [L/kg]","clearance ([2]; male, SD, plasma, IV, 3 mg/kg) [mL/min/kg]","half-life ([2]; male, SD, plasma, IV, 3 mg/kg) [h]","AUC(0-inf) ([2]; male, SD, plasma, PO, 30 mg/kg) [ng·h/mL]","AUC(0-t) ([2]; male, SD, plasma, PO, 30 mg/kg) [ng·h/mL]","Cmax ([2]; male, SD, plasma, PO, 30 mg/kg) [ng/mL]","Tmax ([2]; male, SD, plasma, PO, 30 mg/kg) [h]",F ([2]; PO 30 mg/kg vs IV 3 mg/kg) [%],Tumor volume (mm^3) (Day 21) ([1]; 3 mpk),TGI(%) ([1]; 3 mpk),Tumor volume (mm^3) (Day 21) ([1]; 30 mpk),TGI(%) ([1]; 30 mpk)
"C=CC(=O)N1CCN(c2nc(=O)n(-c3c(C)ccnc3C(C)C)c3nc(-c4c(O)cccc4F)c(F)cc23)[C@@H](C)C1 (atropisomer, axis not shown) [AMG510, reference compound]",432,72.3,–,–,–,–,–,–,–,–,–,–,–,–,–,–
"C=CC(=O)N1CCN(c2c(C#N)cnc3c(F)c(-c4ccc(F)c5sc(N)nc45)c(Cl)cc23)CC1 [Example 9, 4-(4-Acryloylpiperazin-1-yl)-7-(2-amino-7-fluorobenzo[d]thiazol-4-yl)-6-chloro-8-fluoroquinoline-3-carbonitrile]",246,89.8,3310,3310,0.63,15.6,0.67,7870,7780,2390,1.33,23.8,665,50.4,162,97.7
